The record followed here is PubChem BioAssay (NCI).

Test systems include HCT-15 colon; MDA-N; EKVX NSCLC; T-47D breast; A498 renal; MCF7 breast; OVCAR-5 ovarian; HOP-62 NSCLC; OVCAR-3 ovarian.
Holding throughout (assay): growth of human tumour cells (NCI), 48 h

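Assay format: 96-well plates, 48-hour exposure. TGI: concentration producing complete growth inhibition.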 A value given as a limit tells only on which side of the number the result lay.

As for `COc1cc(C2c3cc4c(cc3OC(NNS(=O)(=O)c3ccc(C)cc3)C2C)OCO4)cc(OC)c1OC` (stereo not drawn), the TGI with HCT-15 colon was more than 22.8 µM; in the test on MDA-N it was 2.01 µM; with EKVX NSCLC it was 18.3 µM; in the test on T-47D breast, more than 100 µM; in the test on A498 renal it was 5.69 µM; with MCF7 breast it was more than 39.8 µM. The figures for the TGI in the test on OVCAR-5 ovarian, in the test on HOP-62 NSCLC and in the test on OVCAR-3 ovarian were more than 100 µM, 4.68 µM and 7.78 µM, respectively.

For the compound `N#CC1=C(N)N(/N=C/c2ccccc2)C(c2ccccc2)C1(C#N)C#N` (stereo not drawn), the TGI in the test on HCT-15 colon worked out at 18.7 µM; in the test on MDA-N, 30.5 µM; in the test with EKVX NSCLC, 38.3 µM; with T-47D breast, 24.4 µM; in the test with A498 renal, 29.3 µM; in the test with MCF7 breast it was 58.6 µM. The TGI with OVCAR-5 ovarian worked out at 39.4 µM; with HOP-62 NSCLC it was 33.1 µM; with OVCAR-3 ovarian, 17.4 µM.

In the case of `COC(=O)c1c(CC(Cc2ccc3c(c2)CCCC3)C(=O)O)ccc2c1CCCC2` (stereo not drawn), the TGI in the test with HCT-15 colon is 33.8 µM; in the test with MDA-N, more than 100 µM; in the test on EKVX NSCLC it was 68.6 µM; in the test on T-47D breast, more than 100 µM; with A498 renal, 76.3 µM; with MCF7 breast, 84.1 µM. For the same compound, the TGI in the test on OVCAR-5 ovarian was more than 100 µM; in the test with HOP-62 NSCLC it was 51.7 µM; with OVCAR-3 ovarian, 34.3 µM.

In the case of `O=C(Nc1cccc(F)c1)c1cc2ccc(O)cc2oc1=Nc1cccc(F)c1`, the TGI was 60.1 µM with HCT-15 colon; more than 100 µM in the test on MDA-N; 26.3 µM in the test with EKVX NSCLC; 42.2 µM with T-47D breast; more than 100 µM in the test on A498 renal; more than 100 µM with MCF7 breast. The TGI in the test with OVCAR-5 ovarian, in the test with HOP-62 NSCLC and in the test with OVCAR-3 ovarian was more than 100 µM in each case.

Regarding `O=c1[nH]c(SCc2cccc([N+](=O)[O-])c2)nc2nc[nH]c12`, the TGI in the test with HCT-15 colon, in the test with MDA-N, in the test with EKVX NSCLC, in the test on T-47D breast, with A498 renal and in the test with MCF7 breast was more than 100 µM in each case. Moreover, the TGI with OVCAR-5 ovarian, in the test on HOP-62 NSCLC and with OVCAR-3 ovarian was more than 100 µM each time.

As to `Cc1cccc2[nH]c3c(c(O)cc4[nH]c5cccc(C)c5c(=O)c43)c(=O)c12`, the TGI with HCT-15 colon, in the test with MDA-N, in the test with EKVX NSCLC, in the test on T-47D breast, in the test with A498 renal and in the test on MCF7 breast was more than 10 µM throughout. In addition, the TGI in the test on OVCAR-5 ovarian, in the test with HOP-62 NSCLC and in the test on OVCAR-3 ovarian was more than 10 µM throughout.

In the case of `N#[N+]c1c([O-])c2ccccc2c2ccccc12`, the TGI was more than 100 µM with HCT-15 colon; more than 100 µM with MDA-N; 72.8 µM in the test with EKVX NSCLC; more than 100 µM in the test on T-47D breast; 46.9 µM in the test with A498 renal; more than 100 µM with MCF7 breast. Further, the TGI in the test on OVCAR-5 ovarian, in the test with HOP-62 NSCLC and with OVCAR-3 ovarian was more than 100 µM in each case.

Turning to `CCCCc1ccc(-n2sc3ncc(-c4ccccc4)cc3c2=O)cc1`, the TGI in the test on HCT-15 colon is more than 100 µM; in the test with MDA-N it was more than 100 µM; in the test with EKVX NSCLC, more than 100 µM; in the test on T-47D breast it was 69.5 µM; in the test on A498 renal it was more than 100 µM; with MCF7 breast, more than 100 µM. Moreover, the TGI in the test with OVCAR-5 ovarian, in the test on HOP-62 NSCLC and with OVCAR-3 ovarian was more than 100 µM throughout.

As to `Cc1ccc(-c2c(-c3ccccc3)[nH]c(C)c2C(=O)ONC(=O)c2ccccc2)cc1`, the TGI in the test with HCT-15 colon is 24.1 µM; with MDA-N, 6.12 µM; in the test on EKVX NSCLC, more than 50.3 µM; with T-47D breast, 19.9 µM; with A498 renal it was 25.5 µM; with MCF7 breast, 17.3 µM. Also, the TGI in the test on OVCAR-5 ovarian was 32.3 µM; with HOP-62 NSCLC, 4.66 µM; in the test on OVCAR-3 ovarian, 17.4 µM.

Take `Cc1cccc2oc3c(c(=O)c12)CC(O)C(C)(C)O3` (stereo not drawn): the TGI in the test with HCT-15 colon, in the test on MDA-N, in the test on EKVX NSCLC, in the test on T-47D breast, in the test with A498 renal and with MCF7 breast was more than 100 µM throughout. Besides, the TGI with OVCAR-5 ovarian, in the test on HOP-62 NSCLC and in the test on OVCAR-3 ovarian was more than 100 µM throughout.

Turning to `COc1cc(C(=O)Oc2c(C(C)=O)sc3c2c(=O)n(-c2ccccc2)c(=S)n3-c2ccccc2)cc(OC)c1OC`, the TGI in the test on HCT-15 colon is 44.1 µM; in the test with MDA-N it was 57 µM; in the test on EKVX NSCLC, 40.8 µM; in the test with T-47D breast, 99.6 µM; with A498 renal, 28.3 µM; in the test on MCF7 breast, 44.8 µM. Also, the TGI in the test on OVCAR-5 ovarian came out at 43.2 µM; in the test with HOP-62 NSCLC, 67.1 µM; in the test on OVCAR-3 ovarian, 62.2 µM.

As for `Cc1ccc(S(=O)(=O)CNC(=O)C(O)(O)C(F)(F)F)cc1`, the TGI with HCT-15 colon, with MDA-N, in the test with EKVX NSCLC, in the test with T-47D breast, in the test with A498 renal and with MCF7 breast was more than 100 µM each time. The TGI in the test on OVCAR-5 ovarian, in the test with HOP-62 NSCLC and in the test with OVCAR-3 ovarian was more than 100 µM throughout.
